The series in a line: gradient 5% acetonitrile 3 min, to 50% in 2 min, to 85% in 15 min, held 3 min, 100 µL/min. The settings on record: column: Zorbax Extend-C18 2.1 x 50 mm; eluents: water / acetonitrile, 0.1% formic acid. In a few lines:
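Over 3 months, pure standards in mixtures of ~100 molecules were run by HPLC coupled to a quadrupole time-of-flight mass spectrometer in positive and negative ionization mode. The column was a Zorbax Extend-C18 (2.1 × 50 mm, 1.8 μm) at 100 μL/min, eluted with water and acetonitrile each holding 0.1% formic acid, with 40 μL dead and 900 μL dwell volumes. Retention time was determined from adduct peaks chosen by software and checked manually.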
The compound `CCc1ccc(NS(=O)(=O)c2cc(-c3cc(C(F)(F)F)on3)sc2C)cc1` yielded an RP-LC retention time of 1230 s. Regarding `CCCCN(CC)C(=O)c1cc2c(=O)oc3ccccc3c2n1C`, the RP-LC retention time worked out at 910 s. With `O=C(c1ccoc1)N1CCC(OCc2nc(C3CC3)no2)CC1` the figure was 719 s; with `Cc1sc(-c2cc(C(F)(F)F)[nH]n2)cc1S(=O)(=O)N1CCN(c2ccccc2)CC1`, 1110 s; with `COc1cc(OC)c(Nc2cc(C)nc3nc(-c4ccc(C)cc4)nn23)cc1Cl`, 1060 s.

For the compound `O=C(NCCOc1ccc(F)cc1)C1CCCN(c2ccc(-c3cccs3)nn2)C1` (centres undefined), the RP-LC retention time was 702 s. For the compound `CCOC(=O)c1c(C)[nH]c(C(=O)N2CCC(C(C)C(=O)NCc3ccc(F)cc3)CC2)c1C` (centres undefined), the RP-LC retention time turned out to be 805 s. With `COC(=O)c1ccc(NC(=O)c2c(O)c3cccnc3n(-c3ccc(F)cc3)c2=O)cc1` the figure was 1210 s.

Consider `O=C(CNC(=O)c1cccs1)Nc1nc2ccccc2[nH]1`, for which the RP-LC retention time was determined as 599 s.

Turning to `COc1ccccc1OCC1c2ccsc2CCN1C(=O)CN(C(=O)NC(C)C)C(C)(C)C` (centres undefined), the RP-LC retention time turned out to be 595 s. Consider `CC(C)CN(Cc1ccccc1)Cc1cc(=O)n2cc(Cl)ccc2n1`, for which the RP-LC retention time amounted to 686 s. With `Cn1nccc1-c1cccc(-c2noc(-c3ccc(CS(=O)(=O)c4ccccc4)cc3)n2)c1` the figure was 1080 s; with `COc1ccc(Cn2c(=O)c3sccc3n(Cc3nc(-c4ccccc4C)no3)c2=O)cc1`, 1150 s. `CC(C)CN1CCn2cc(S(=O)(=O)Nc3ccc(F)cc3)cc2C1=O` had an RP-LC retention time of 1020 s.

On to `CCOC(=O)c1cn(CC(=O)Nc2ccc3c(c2)OCO3)c2nc(C)ccc2c1=O`, for which the RP-LC retention time is 715 s. Take `CCc1nc(NCc2cccnc2)ncc1C(=O)O`: the RP-LC retention time stood at 560 s. The compound `CCCCC(=O)N1CC(F)(F)C[C@H]1c1nnc(-c2cnccn2)o1` showed an RP-LC retention time of 715 s. For `COc1ccc(NC(=O)N2CCCC(Cn3cnc4cccnc43)C2)cc1OC` (centres undefined) the value was 620 s. Compound `Cc1cc(N2CCN(c3ccccn3)CC2)n2ncc(-c3ccccc3Cl)c2n1` had an RP-LC retention time of 732 s. Consider `CCCCC(=O)Nc1nc(-c2ccc3c(c2)NC(=O)CO3)cs1`, for which the RP-LC retention time worked out at 801 s. For `Cc1cc(C2CCCN2C(=O)Nc2cccc(C)c2C)no1` (centres undefined), the RP-LC retention time amounted to 774 s. With `CC(C)(C)NC(=O)N1CCC(CNC(=O)C(=O)Nc2ccccc2Cl)CC1`, the RP-LC retention time turned out to be 836 s. With `CCN1CCn2cc(S(=O)(=O)Nc3cccc(C#N)c3)cc2C1=O` the figure was 680 s; with `Fc1cccc(-c2nc(-c3cn(-c4ccccc4)nn3)no2)c1`, 1040 s. The compound `CN(CC1(C)CCOCC1)C(=O)COc1ccccc1` came in with an RP-LC retention time of 742 s.

`Cc1ccc(CN2CCC(CNC(=O)c3c(C)oc4c3C3=NCCN3C=N4)C2)cc1` (centres undefined): the RP-LC retention time came out at 597 s.

Compound `O=C(C1CC1)N1CCC(c2noc(-c3cnccn3)n2)C1` (centres undefined) yielded an RP-LC retention time of 621 s. `CC1CCN(C(=O)C2N(C(C)C)C(=O)C23CCCC3)CC1` (centres undefined) gave an RP-LC retention time of 737 s. `CC1CCN(S(=O)(=O)c2ccc3c(ccn3CCC(=O)N3CCN(c4ccccn4)CC3)c2)CC1` registered an RP-LC retention time of 728 s. With `Cc1cn(-c2cc(NC(=O)c3ccc(C)c(Nc4nccc(-c5cccnc5)n4)c3)cc(C(F)(F)F)c2)cn1` the figure was 776 s.

The compound `Cc1ccc(S(=O)(=O)N2C(=O)CCC2C(=O)N2CCN(c3ccccn3)CC2)cc1` (centres undefined) had an RP-LC retention time of 612 s. Compound `CCCc1cc(C(=O)N2CCCC2c2ccc(OC)cc2)no1` (centres undefined) returned an RP-LC retention time of 1120 s. On to `c1ccc2c(OCc3nc4c5ccccc5ncn4n3)cccc2c1`, for which the RP-LC retention time was 1040 s. With `CCN(C(=O)c1cccs1)c1nc(-c2ccc(C)cc2)cs1` the figure was 1280 s. With `O=C(C1CC1)N1CCN(S(=O)(=O)c2cc(-c3noc(C4CCC4)n3)cs2)CC1`, the RP-LC retention time came to 926 s. With `O=C(Cn1nc2c(Oc3cccc(F)c3)nccn2c1=O)Nc1ccccc1F` the figure was 815 s.

The compound `COc1cc2c(cc1OC)[N+]([O-])=C(c1ccccc1)C2=O` displayed an RP-LC retention time of 1030 s. For `CN1Cc2ccccc2-n2ccnc2C12CCN(C(=O)c1ccc(F)c(F)c1)CC2` the value was 619 s; for `CCc1ccc(C2=C(C)C(N3CCCN(C(=O)c4ccsc4)CC3)=NS2(=O)=O)cc1`, 859 s.

Consider `O=C1[C@H]2CN(Cc3cccc(OC(F)(F)F)c3)C[C@H]2C(=O)N1CCc1ccccc1`, for which the RP-LC retention time worked out at 1000 s. With `Cc1nc(-c2cn(C)c3ncccc23)sc1C(=O)Nc1ccc(F)cc1` the figure was 1130 s.

In turn, `COc1ccc(C(=O)NC2CCN(c3cc(-c4cccs4)[nH]n3)C2)cn1` (centres undefined) registered an RP-LC retention time of 676 s. With `Cc1c(Cl)cccc1NC(=O)NCC1(N2CCOCC2)CCOC1` (centres undefined), the RP-LC retention time was determined as 614 s. For `CCOc1cc(=O)n2c(c1C(=O)NC1CC1)CCCCC2` the value was 611 s. For `Cc1cccc(-c2nc(C3CC(=O)N(c4ccc(F)c(Cl)c4)C3)no2)c1` (centres undefined) the value was 1140 s; for `CCCN1N=C(C(=O)N2CCC(C)CC2)S(=O)(=O)c2ccc(C)cc21`, 993 s. For `CCc1ccc(CNC(=O)c2cc3c(=O)n(C)ccc3n2C)cc1` the value was 746 s; for `CCOCCOC1CCN(C(=O)Nc2ccc3c(c2)OCCO3)CC1`, 708 s; for `CCCN1C(=O)c2ccccc2C(C(=O)NC2CC2)C1c1cc(OC)c(OC)c(OC)c1` (centres undefined), 696 s. In turn, `CCc1cc(=O)n(CC(=O)N(C)c2ccccc2)c(N2CCOCC2)n1` had an RP-LC retention time of 674 s. For the compound `CCC(=O)NCCc1c[nH]c2ccc(Cl)cc12`, the RP-LC retention time is 743 s. With `CCOc1ccc(NC(=O)c2cnc3c(c2)c(=O)n(C)c(=O)n3-c2ccc(OC)cc2)cc1` the figure was 901 s. In turn, `COc1cccc(CNC(=O)C2(C)CCCN(S(=O)(=O)c3ccccc3C)C2)c1` (centres undefined) had an RP-LC retention time of 957 s. As to `O=C(NC1CCCCCC1)C1c2ccccc2C(=O)N1Cc1cccnc1` (centres undefined), the RP-LC retention time is 590 s. With `COc1ccc(CC(=O)N2CCCC2c2cc(C)on2)cc1OC` (centres undefined) the figure was 716 s; with `CCc1ccc(-c2cc(C(=O)N3CCN(Cc4noc5ccccc45)CC3)[nH]n2)cc1`, 772 s; with `CCS(=O)(=O)c1nc2ccc(NS(=O)(=O)c3cccc(Cl)c3)cc2s1`, 928 s.

In turn, `Cc1ccc(NC(=O)N2CCN(C3=CC4=NCC(C)N4C=N3)CC2)c(C)c1` (centres undefined) showed an RP-LC retention time of 623 s.

`CC1(C(=O)NCc2ccccc2)CN(S(C)(=O)=O)CC(=O)N1C1CC1` (centres undefined) gave an RP-LC retention time of 662 s. For `COc1ccc(NC(=O)C(C)C2CCN(C(=O)Nc3ccc(F)cc3)CC2)cc1` (centres undefined) the value was 799 s. For `CCOc1cc(N)c(Cl)cc1C(=O)NCC1CN(Cc2ccc(F)cc2)CCO1` (centres undefined) the value was 714 s. Regarding `Cc1ccccc1CNC(=O)Cn1c(C)cc(-c2nnc(C3CCC3)o2)c1C`, the RP-LC retention time worked out at 902 s.

Regarding `CCCCOC(=O)c1ccc(NC(=O)c2cccn(Cc3cccc([N+](=O)[O-])c3)c2=O)cc1`, the RP-LC retention time was found to be 1140 s.

For the compound `Cc1nc(-c2ccncc2)nc2c1CCC(=O)N2Cc1cccnc1`, the RP-LC retention time turned out to be 553 s. Compound `Nc1cc(C2CCN(S(=O)(=O)c3ccc(F)cc3F)CC2)no1` came in with an RP-LC retention time of 780 s.

Compound `Cn1cc(-c2cc3n(n2)CCC(=O)N3CCCC(=O)N2CCN(c3ccccn3)CC2)c2ccccc21` had an RP-LC retention time of 619 s. For `CCOc1ccc(-c2noc(Cn3nc4ccc(-c5ccc(C)cc5)nn4c3=O)n2)cc1OC` the value was 966 s. Regarding `O=C(NCc1ccc(C(F)(F)F)cc1)C1=C2CCCN2c2ccccc2S1(=O)=O`, the RP-LC retention time came out at 922 s.

On to `O=C(NCC(c1ccsc1)N1CCc2ccccc2C1)C(=O)NC1CCCC1` (centres undefined), for which the RP-LC retention time is 592 s. For `CCOC(=O)c1c[nH]c2ccc(NC(C)=O)cc2c1=O` the value was 557 s. In turn, `Cc1cc(=O)n(CC(=O)Nc2cc(F)cc(F)c2)c(N2CCCCC2)n1` showed an RP-LC retention time of 733 s. `O=C(NCCn1c(=O)n(Cc2ccccc2)c2cccnc21)c1cnccn1` returned an RP-LC retention time of 680 s.

Take `O=C(CN1C(=O)CSc2ccc(C(=O)N3CCCC3)cc21)NC1CCCCCCC1`: the RP-LC retention time amounted to 760 s. With `COC(=O)c1ccsc1NC(=O)CCS(=O)(=O)c1ccccc1` the figure was 788 s; with `CC[C@@H](C)[C@@H](O)[C@H](C)C(=O)[C@H](C)/C=C(\C)C[C@H](C)[C@@H]1OC(=O)[C@H]1CC`, 1250 s; with `CC(=O)N1CCCc2cc(S(=O)(=O)CCC(=O)N3CCN(c4cc(C)ccc4C)CC3)ccc21`, 936 s. With `CC(C)c1ccc(C(=O)Nc2ccc3c(c2)Sc2ncccc2C(=O)N3C)cc1`, the RP-LC retention time came out at 950 s.

`O=C1COc2ccc(S(=O)(=O)N3CCC(C(=O)N4CCOCC4)CC3)cc2N1`: the RP-LC retention time amounted to 620 s. For `Cc1c(-c2nn3c(Cc4ccccc4)nnc3s2)nnn1-c1ccc(Cl)cc1` the value was 1040 s.

The values are drawn from the METLIN SMRT retention time set (Domingo-Almenara et al. 2019).
